# Laboratory results: publication PMC11420776 (RSC Advances, 2024)
# How the values were obtained:
# caspase-9 = assay: Caspase-9; type: cell-based, human; details: MCF7 cells, versus untreated control cells
# [1] = MTT cytotoxicity assay, MCF10a; type: cell-based; details: human, MCF10a normal mammary epithelial cells
# [2] = test system: NCI-H23 (NSC lung cancer); assay: NCI 60-cell one-dose antiproliferative screen; type: cell-based, human; details: one dose 10 μM
# [3] = test system: A549/ATCC (NSC lung cancer); assay: NCI 60-cell one-dose antiproliferative screen; type: cell-based, human; details: one dose 10 μM
# MALME-3M (melanoma) = assay: NCI 60-cell one-dose antiproliferative screen; type: cell-based, human; details: one dose 10 μM
# SF-268 (CNS cancer) = assay: NCI 60-cell one-dose antiproliferative screen; type: cell-based, human; details: one dose 10 μM
# SF-295 (CNS cancer) = assay: NCI 60-cell one-dose antiproliferative screen; type: cell-based, human; details: one dose 10 μM
# HT29 (colon cancer) = assay: NCI 60-cell one-dose antiproliferative screen; type: cell-based, human; details: one dose 10 μM
# T-47D (breast cancer) = assay: NCI 60-cell one-dose antiproliferative screen; type: cell-based, human; details: one dose 10 μM
# HCT-15 (colon cancer) = assay: NCI 60-cell one-dose antiproliferative screen; type: cell-based, human; details: one dose 10 μM
# [4] = test system: MDA-MB-231/ATCC (breast cancer); assay: NCI 60-cell one-dose antiproliferative screen; type: cell-based, human; details: one dose 10 μM
# [5] = test system: NCI-H226 (NSC lung cancer); assay: NCI 60-cell one-dose antiproliferative screen; type: cell-based, human; details: one dose 10 μM
# DU-145 (prostate cancer) = assay: NCI 60-cell one-dose antiproliferative screen; type: cell-based, human; details: one dose 10 μM
# [6] = test system: NCI/ADR-RES (ovarian cancer); assay: NCI 60-cell one-dose antiproliferative screen; type: cell-based, human; details: one dose 10 μM
# RPMI-8226 (leukemia) = assay: NCI 60-cell one-dose antiproliferative screen; type: cell-based, human; details: one dose 10 μM
# IGROV1 (ovarian cancer) = assay: NCI 60-cell one-dose antiproliferative screen; type: cell-based, human; details: one dose 10 μM
# U251 (CNS cancer) = assay: NCI 60-cell one-dose antiproliferative screen; type: cell-based, human; details: one dose 10 μM
# HS 578T (breast cancer) = assay: NCI 60-cell one-dose antiproliferative screen; type: cell-based, human; details: one dose 10 μM
# SN12C (renal cancer) = assay: NCI 60-cell one-dose antiproliferative screen; type: cell-based, human; details: one dose 10 μM
# COLO-205 (colon cancer) = assay: NCI 60-cell one-dose antiproliferative screen; type: cell-based, human; details: one dose 10 μM
# SF-539 (CNS cancer) = assay: NCI 60-cell one-dose antiproliferative screen; type: cell-based, human; details: one dose 10 μM
# SK-MEL-2 (melanoma) = assay: NCI 60-cell one-dose antiproliferative screen; type: cell-based, human; details: one dose 10 μM
# [7] = test system: 60 human tumor cell lines; assay: NCI 60-cell one-dose antiproliferative screen, whole panel; type: cell-based; details: Homo sapiens, 60 cell, read-out: Mean inhibition (mean GI%)
# OVCAR-4 (ovarian cancer) = assay: NCI 60-cell one-dose antiproliferative screen; type: cell-based, human; details: one dose 10 μM
# UACC-257 (melanoma) = assay: NCI 60-cell one-dose antiproliferative screen; type: cell-based, human; details: one dose 10 μM
# UO-31 (renal cancer) = assay: NCI 60-cell one-dose antiproliferative screen; type: cell-based, human; details: one dose 10 μM
# LOX IMIV (melanoma) = assay: NCI 60-cell one-dose antiproliferative screen; type: cell-based, human; details: one dose 10 μM
# M14 (melanoma) = assay: NCI 60-cell one-dose antiproliferative screen; type: cell-based, human; details: one dose 10 μM
# MCF7 (breast cancer) = assay: NCI 60-cell one-dose antiproliferative screen; type: cell-based, human; details: one dose 10 μM
# SK-OV-3 (ovarian cancer) = assay: NCI 60-cell one-dose antiproliferative screen; type: cell-based, human; details: one dose 10 μM
# TK-10 (renal cancer) = assay: NCI 60-cell one-dose antiproliferative screen; type: cell-based, human; details: one dose 10 μM
# OVCAR-8 (ovarian cancer) = assay: NCI 60-cell one-dose antiproliferative screen; type: cell-based, human; details: one dose 10 μM
# SW-620 (colon cancer) = assay: NCI 60-cell one-dose antiproliferative screen; type: cell-based, human; details: one dose 10 μM
# HOP-62 (NSC lung cancer) = assay: NCI 60-cell one-dose antiproliferative screen; type: cell-based, human; details: one dose 10 μM
# SK-MEL-28 (melanoma) = assay: NCI 60-cell one-dose antiproliferative screen; type: cell-based, human; details: one dose 10 μM
# 786-0 (renal cancer) = assay: NCI 60-cell one-dose antiproliferative screen; type: cell-based, human; details: one dose 10 μM
# CCRF-CEM (leukemia) = assay: NCI 60-cell one-dose antiproliferative screen; type: cell-based, human; details: one dose 10 μM
# EKVX (NSC lung cancer) = assay: NCI 60-cell one-dose antiproliferative screen; type: cell-based, human; details: one dose 10 μM
# SNB-75 (CNS cancer) = assay: NCI 60-cell one-dose antiproliferative screen; type: cell-based, human; details: one dose 10 μM
# OVCAR-3 (ovarian cancer) = assay: NCI 60-cell one-dose antiproliferative screen; type: cell-based, human; details: one dose 10 μM
# [8] = test system: MDA-MB-468 (breast cancer); assay: NCI 60-cell one-dose antiproliferative screen; type: cell-based, human; details: one dose 10 μM
# HOP-92 (NSC lung cancer) = assay: NCI 60-cell one-dose antiproliferative screen; type: cell-based, human; details: one dose 10 μM
# PC-3 (prostate cancer) = assay: NCI 60-cell one-dose antiproliferative screen; type: cell-based, human; details: one dose 10 μM
# ACHN (renal cancer) = assay: NCI 60-cell one-dose antiproliferative screen; type: cell-based, human; details: one dose 10 μM
# KM12 (colon cancer) = assay: NCI 60-cell one-dose antiproliferative screen; type: cell-based, human; details: one dose 10 μM
# MDA-MB-435 (melanoma) = assay: NCI 60-cell one-dose antiproliferative screen; type: cell-based, human; details: one dose 10 μM
# [9] = test system: NCI-H460 (NSC lung cancer); assay: NCI 60-cell one-dose antiproliferative screen; type: cell-based, human; details: one dose 10 μM
# [10] = test system: NCI-H522 (NSC lung cancer); assay: NCI 60-cell one-dose antiproliferative screen; type: cell-based, human; details: one dose 10 μM
# HCC-2998 (colon cancer) = assay: NCI 60-cell one-dose antiproliferative screen; type: cell-based, human; details: one dose 10 μM
# OVCAR-5 (ovarian cancer) = assay: NCI 60-cell one-dose antiproliferative screen; type: cell-based, human; details: one dose 10 μM
# CAKI-1 (renal cancer) = assay: NCI 60-cell one-dose antiproliferative screen; type: cell-based, human; details: one dose 10 μM
# [11] = test system: NCI-H322M (NSC lung cancer); assay: NCI 60-cell one-dose antiproliferative screen; type: cell-based, human; details: one dose 10 μM
# HCT-116 (colon cancer) = assay: NCI 60-cell one-dose antiproliferative screen; type: cell-based, human; details: one dose 10 μM
# RXF 393 (renal cancer) = assay: NCI 60-cell one-dose antiproliferative screen; type: cell-based, human; details: one dose 10 μM
# UACC-62 (melanoma) = assay: NCI 60-cell one-dose antiproliferative screen; type: cell-based, human; details: one dose 10 μM
# A498 (renal cancer) = assay: NCI 60-cell one-dose antiproliferative screen; type: cell-based, human; details: one dose 10 μM
# SNB-19 (CNS cancer) = assay: NCI 60-cell one-dose antiproliferative screen; type: cell-based, human; details: one dose 10 μM
smiles,measurement,setting,value
"CN[C@@H]1C[C@H]2O[C@@](C)([C@@H]1OC)n1c3ccccc3c3c4c(c5c6ccccc6n2c5c31)C(=O)NC4 [Staurosporine, reference compound]",increase of apoptotic caspase-9 level,caspase-9,7.19 fold
same,IC50 at 72 h,[1],18.3 ± 8.03 µM
"COc1ccc(-c2nnc3ccc(NN=Cc4ccccc4)nn23)cc1 [Compound 4e, 6-(2-Benzylidenehydrazinyl)-3-(4-methoxyphenyl)-[1,2,4]triazolo[4,3-b]pyridazine]",GI%,[2],— (— GI% is below 15%)
same,GI%,[3],21.90%
same,GI%,MALME-3M (melanoma),— (— GI% is below 15%)
same,GI%,SF-268 (CNS cancer),— (— GI% is below 15%)
same,GI%,SF-295 (CNS cancer),— (— GI% is below 15%)
same,GI%,HT29 (colon cancer),— (— GI% is below 15%)
same,GI%,T-47D (breast cancer),— (— GI% is below 15%)
same,GI%,HCT-15 (colon cancer),— (— GI% is below 15%)
same,GI%,[4],34.41%
same,GI%,[5],42.42%
same,GI%,DU-145 (prostate cancer),— (— GI% is below 15%)
same,GI%,[6],30.10%
same,GI%,RPMI-8226 (leukemia),— (— GI% is below 15%)
same,GI%,IGROV1 (ovarian cancer),— (— GI% is below 15%)
same,GI%,U251 (CNS cancer),22.16%
same,GI%,HS 578T (breast cancer),17.35%
same,GI%,SN12C (renal cancer),— (— GI% is below 15%)
same,GI%,COLO-205 (colon cancer),— (— GI% is below 15%)
same,GI%,SF-539 (CNS cancer),17.17%
same,GI%,SK-MEL-2 (melanoma),— (— GI% is below 15%)
same,inhibition at 10 µM,[7],7.15%
same,GI%,OVCAR-4 (ovarian cancer),— (— GI% is below 15%)
same,GI%,UACC-257 (melanoma),— (— GI% is below 15%)
same,GI%,UO-31 (renal cancer),— (— GI% is below 15%)
same,GI%,LOX IMIV (melanoma),29.87%
same,GI%,M14 (melanoma),— (— GI% is below 15%)
same,GI%,MCF7 (breast cancer),28.54%
same,GI%,SK-OV-3 (ovarian cancer),— (— GI% is below 15%)
same,GI%,TK-10 (renal cancer),— (— GI% is below 15%)
same,GI%,OVCAR-8 (ovarian cancer),34.25%
same,GI%,SW-620 (colon cancer),— (— GI% is below 15%)
same,GI%,HOP-62 (NSC lung cancer),— (— GI% is below 15%)
same,GI%,SK-MEL-28 (melanoma),— (— GI% is below 15%)
same,GI%,786-0 (renal cancer),— (— GI% is below 15%)
same,GI%,CCRF-CEM (leukemia),— (— GI% is below 15%)
same,GI%,EKVX (NSC lung cancer),— (— GI% is below 15%)
same,GI%,SNB-75 (CNS cancer),62.97%
same,GI%,OVCAR-3 (ovarian cancer),— (— GI% is below 15%)
same,GI%,[8],— (— GI% is below 15%)
same,GI%,HOP-92 (NSC lung cancer),29.15%
same,GI%,PC-3 (prostate cancer),— (— GI% is below 15%)
same,GI%,ACHN (renal cancer),— (— GI% is below 15%)
same,GI%,KM12 (colon cancer),— (— GI% is below 15%)
same,GI%,MDA-MB-435 (melanoma),— (— GI% is below 15%)
same,GI%,[9],— (— GI% is below 15%)
same,GI%,[10],— (— GI% is below 15%)
same,GI%,HCC-2998 (colon cancer),— (— GI% is below 15%)
same,GI%,OVCAR-5 (ovarian cancer),— (— GI% is below 15%)
same,GI%,CAKI-1 (renal cancer),— (— GI% is below 15%)
same,GI%,[11],— (— GI% is below 15%)
same,GI%,HCT-116 (colon cancer),— (— GI% is below 15%)
same,GI%,RXF 393 (renal cancer),— (— GI% is below 15%)
same,GI%,UACC-62 (melanoma),— (— GI% is below 15%)
same,GI%,A498 (renal cancer),— (— GI% is below 15%)
same,GI%,SNB-19 (CNS cancer),17.10%
